Assay results reported in ChEMBL document CHEMBL1250443, “Microarray-based method for monitoring yeast overexpression strains reveals small-molecule targets in TOR pathway” (Nat Chem Biol, 2006).

Columns and labels:
Saccharomyces cerevisiae [1] = assay: Increase of GUF1 gene expression in wild-type Saccharomyces cerevisiae transformed with overexpression plasmids by microarray; type: functional
Saccharomyces cerevisiae [2] = assay: Increase of FMP38 gene expression in wild-type Saccharomyces cerevisiae transformed with overexpression plasmids by microarray; type: functional
Saccharomyces cerevisiae [3] = assay: Increase of HMI1 gene expression in wild-type Saccharomyces cerevisiae transformed with overexpression plasmids by microarray; type: functional
Saccharomyces cerevisiae [4] = assay: Increase of YRR1 gene expression in wild-type Saccharomyces cerevisiae transformed with overexpression plasmids by microarray; type: functional
Saccharomyces cerevisiae [5] = assay: Increase of YDR514C gene expression in wild-type Saccharomyces cerevisiae transformed with overexpression plasmids by microarray; type: functional
Saccharomyces cerevisiae [6] = assay: Increase of SUV3 gene expression in wild-type Saccharomyces cerevisiae transformed with overexpression plasmids by microarray; type: functional
Saccharomyces cerevisiae [7] = assay: Increase of PET111 gene expression in wild-type Saccharomyces cerevisiae transformed with overexpression plasmids by microarray; type: functional
Saccharomyces cerevisiae [8] = assay: Increase of MDL1 gene expression in wild-type Saccharomyces cerevisiae transformed with overexpression plasmids by microarray; type: functional
Saccharomyces cerevisiae [9] = assay: Increase of MRPS28 gene expression in wild-type Saccharomyces cerevisiae transformed with overexpression plasmids by microarray; type: functional
Saccharomyces cerevisiae [10] = assay: Increase of MAM1 gene expression in wild-type Saccharomyces cerevisiae transformed with overexpression plasmids by microarray; type: functional
Saccharomyces cerevisiae [11] = assay: Decrease of FET4 gene expression in wild-type Saccharomyces cerevisiae transformed with overexpression plasmids by microarray; type: functional
Saccharomyces cerevisiae [12] = assay: Decrease of RIM11 gene expression in wild-type Saccharomyces cerevisiae transformed with overexpression plasmids by microarray; type: functional
Saccharomyces cerevisiae [13] = assay: Decrease of HOS1 gene expression in wild-type Saccharomyces cerevisiae transformed with overexpression plasmids by microarray; type: functional
Saccharomyces cerevisiae [14] = assay: Decrease of YDR222W gene expression in wild-type Saccharomyces cerevisiae transformed with overexpression plasmids by microarray; type: functional
Saccharomyces cerevisiae [15] = assay: Decrease of YKR75C gene expression in wild-type Saccharomyces cerevisiae transformed with overexpression plasmids by microarray; type: functional
Saccharomyces cerevisiae [16] = assay: Decrease of YJL051W gene expression in wild-type Saccharomyces cerevisiae transformed with overexpression plasmids by microarray; type: functional
Saccharomyces cerevisiae [17] = assay: Decrease of SGN1 gene expression in wild-type Saccharomyces cerevisiae transformed with overexpression plasmids by microarray; type: functional
Saccharomyces cerevisiae [18] = assay: Decrease of YMD8 gene expression in wild-type Saccharomyces cerevisiae transformed with overexpression plasmids by microarray; type: functional
[19] = biological target: T1, Translation factor GUF1, mitochondrial (Saccharomyces cerevisiae S288c, UniProt P46943); assay: Inhibition of yeast Guf1
T1 sequence (P46943 whole entry): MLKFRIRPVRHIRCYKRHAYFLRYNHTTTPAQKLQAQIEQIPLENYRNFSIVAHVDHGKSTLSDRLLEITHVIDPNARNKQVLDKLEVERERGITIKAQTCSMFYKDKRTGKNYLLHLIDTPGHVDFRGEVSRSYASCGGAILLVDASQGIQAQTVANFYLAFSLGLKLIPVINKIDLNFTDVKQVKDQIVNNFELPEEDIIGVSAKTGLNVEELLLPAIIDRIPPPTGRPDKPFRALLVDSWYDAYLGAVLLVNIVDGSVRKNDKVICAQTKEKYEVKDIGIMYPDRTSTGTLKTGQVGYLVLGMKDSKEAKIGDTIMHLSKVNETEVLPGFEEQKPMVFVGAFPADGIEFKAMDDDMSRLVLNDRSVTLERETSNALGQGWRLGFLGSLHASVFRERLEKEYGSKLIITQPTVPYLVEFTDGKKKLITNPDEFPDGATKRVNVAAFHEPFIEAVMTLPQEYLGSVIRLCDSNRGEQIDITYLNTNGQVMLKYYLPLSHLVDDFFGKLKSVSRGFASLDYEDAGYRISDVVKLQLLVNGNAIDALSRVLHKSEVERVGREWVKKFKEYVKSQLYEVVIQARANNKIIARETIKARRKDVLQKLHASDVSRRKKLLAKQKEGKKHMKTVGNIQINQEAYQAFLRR

In the case of `O=C1C(Nc2ccccc2)=CC(=O)c2ncccc21`, the “fold change (FC)” value (Saccharomyces cerevisiae [1]) is reported as 5, the “fold change (FC)” value (Saccharomyces cerevisiae [2]) is reported as 3.1 and the “fold change (FC)” value (Saccharomyces cerevisiae [3]) is reported as 2.9. The “fold change (FC)” value (Saccharomyces cerevisiae [4]) was 2.8, the “fold change (FC)” value (Saccharomyces cerevisiae [5]) was 2.7 and the “fold change (FC)” value (Saccharomyces cerevisiae [6]) was 2.4. The “fold change (FC)” value (Saccharomyces cerevisiae [7]) was 2.3, the “fold change (FC)” value (Saccharomyces cerevisiae [8]) was 2.2 and the “fold change (FC)” value (Saccharomyces cerevisiae [9]) was 2.1. The “fold change (FC)” value (Saccharomyces cerevisiae [10]) was 2.1, the “fold change (FC)” value (Saccharomyces cerevisiae [11]) was -4.3 and the “fold change (FC)” value (Saccharomyces cerevisiae [12]) was -3.3. The “fold change (FC)” value (Saccharomyces cerevisiae [13]) was -2.4, the “fold change (FC)” value (Saccharomyces cerevisiae [14]) was -2.4 and the “fold change (FC)” value (Saccharomyces cerevisiae [15]) was -2.1. For the same compound, the “fold change (FC)” value (Saccharomyces cerevisiae [16]) was -2.1, the “fold change (FC)” value (Saccharomyces cerevisiae [17]) was -2.1 and the “fold change (FC)” value (Saccharomyces cerevisiae [18]) was -2. The IC50 [19] was 300 µM.
